In publication PMC7284125, “Identification of annotated bioactive molecules that impair motility of the blood fluke Schistosoma mansoni” (International Journal for Parasitology: Drugs and Drug …, 2020):
Read-outs that look alike come from different tables or passages of the source. Blank lines part the entries; values can stand above or below the compound they belong to.

Experiments:
[1] = tested on: S. mansoni schistosomulae; assay: Phenotypic primary screen assay on schistosomulae (phenotype; viability by methylene blue dye exclusion); type: cell-based, Schistosoma mansoni; settings: for Phenotype: estimated 5 days post compound exposure
Method in brief: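 Parasites lacking contraction/relaxation cycles and showing dark internal granulations counted as dead. Movement and body shape were compared with DMSO-treated controls under a stereo microscope at 24 h and at five days of exposure. Larvae came from infected snails shed under light for 2 h at 32 °C.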

S. mansoni adult worms = assay: Motility assay on adult parasites (pixel displacement, relative to DMSO control); type: cell-based, Schistosoma mansoni; settings: secondary screen, 10 μM
Method in brief: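 Unpaired adult worms from mice 6 weeks post-infection kept in OPTI-MEM with 5% dialyzed FBS and exposed to compounds at 1 and 10 μM for 24 h. Motility filmed 1 min at 10 frames/s, quantified by pixel displacement versus DMSO-treated worms; recovery followed up to five days after washout.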

[2] = tested on: S. mansoni schistosomulae; assay: Phenotypic primary screen assay on schistosomulae (phenotype; viability by methylene blue dye exclusion); type: cell-based; settings: Schistosoma mansoni; three-day-old schistosomulae, 10 μM, 24 h; calculated 5 days post compound exposure; read-out: Viability (%)
[3] = tested on: naïve Glo HEK293 cells (no receptor); assay: cAMP luminescence (GloSensor) assay on naïve Glo HEK293 cells (no receptor); type: cell-based, human; settings: for effect on luminescence evoked by forskolin: 20 μM forskolin
Procedure: The SmGPR2 sequence previously identified ([El-Shehabi and Ribeiro, 2010]) was codon optimized for mammalian expression and subcloned in the vector pCI-neo (Addgene, USA) using the XbaI and NotI restriction enzymes. A FLAG fusion tag ([…]) was introduced at the N-terminal end of the receptor sequence. Stable transfection of HEK293 cells (ATCC; CRL-1573) was performed using the X-tremeGENE 9 DNA transfection reagent (Sigma Aldrich). Cells were then cultured at 37 °C, 5% CO2 in Opti-MEM supplemented with 5% FBS and maintained in 400 μg/mL G418 (Sigma Aldrich) for selection of transformants. […] All cell lines expressing S. mansoni GPCRs were then transfected with the GloSensor encoding plasmid p22F (Promega) and media was supplemented with 100 μg/mL hygromycin for stable expression (ThermoFisher).
Adherent HEK293 cells were seeded at a density of 5 x 10^4 cells/well (96-well plate) in Opti-MEM without FBS or antibiotics and incubated overnight at 37 °C and 5% CO2 prior to the assay. In place of the media, 100 μL HBSS supplemented with 0.1% bovine serum albumin (BSA), 500 μM 3-isobutyl-1-methylxanthine (IBMX, Sigma Aldrich), 20 mM HEPES (pH 7.4) and 1 mg/mL D-luciferin (Goldbio) was added to each well. After a 2 h incubation period at room temperature, luminescence background was recorded, and compounds and control ligands were added at 10X concentration. Immediately after compound addition, luminescence was read over a 45 min period to detect compounds stimulating cAMP release through receptor activation. […] For each assay, luminescence responses were recorded in triplicate and repeated with four independant cell batches. Compounds were also added to naïve Glo HEK293 cells (no receptor) and the robustness of the assay was calculated as: Z^'=1−3×(SDmax+SDmin)/Meanmax−Meanmin with max and min referring respectively to cells expressing GPCRs and Glo (no receptor) cells. Cellular viability was assessed using a CellTiter Glo 2.0 kit (Promega). Glo cells were exposed to 10 μM of each hit compound for 3 h in Opti-MEM at 37 °C, 5% CO2. An equimolar concentration of tamoxifen (Sigma Aldrich) was used as a positive control. 2X cell lysis media was then added and end-point luminescence recorded after a 10 min stabilization time.

SmD2 = SmD2 (Schistosoma mansoni, UniProt G4LUJ1); assay: cell-based; type: cell-based; settings: for IC50: inhibition of EPN-evoked luminescence, SmD2 expressing HEK293 cells, read-out: IC50
Sequence of SmD2 (G4LUJ1 entry or part of it): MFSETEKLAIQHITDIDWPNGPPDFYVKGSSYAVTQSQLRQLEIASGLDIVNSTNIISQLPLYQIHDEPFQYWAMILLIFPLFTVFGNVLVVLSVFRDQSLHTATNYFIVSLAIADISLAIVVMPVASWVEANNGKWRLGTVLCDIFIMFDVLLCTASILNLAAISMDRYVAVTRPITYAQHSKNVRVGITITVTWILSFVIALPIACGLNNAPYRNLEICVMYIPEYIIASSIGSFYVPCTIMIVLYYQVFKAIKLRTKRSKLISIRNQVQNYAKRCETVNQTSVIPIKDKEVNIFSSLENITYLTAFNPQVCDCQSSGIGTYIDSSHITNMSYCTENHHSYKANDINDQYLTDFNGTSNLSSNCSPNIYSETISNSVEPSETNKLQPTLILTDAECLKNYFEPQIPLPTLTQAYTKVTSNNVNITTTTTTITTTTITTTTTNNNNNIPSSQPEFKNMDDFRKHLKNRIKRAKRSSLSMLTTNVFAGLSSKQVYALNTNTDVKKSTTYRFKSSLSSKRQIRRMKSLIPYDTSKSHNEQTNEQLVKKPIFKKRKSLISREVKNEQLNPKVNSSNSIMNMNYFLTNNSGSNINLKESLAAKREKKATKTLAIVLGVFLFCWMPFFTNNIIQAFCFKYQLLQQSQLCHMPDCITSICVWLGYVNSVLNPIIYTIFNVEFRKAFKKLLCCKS

[4] = tested on: S. mansoni schistosomulae; assay: Motility assay on schistosomulae (pixel displacement, relative to DMSO control); type: cell-based, Schistosoma mansoni; settings: for activity at 1 µM: Schistosoma mansoni, read-out: Fractional motility
Method in brief: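 Motility was scored by pixel displacement from 1-min videos (10 frames/s) and compared with DMSO controls. Schistosomulae (200/well, Opti-MEM, 5% dialyzed FBS, no antibiotics) received compound at 1 or 10 μM for 24 h; selected hits were also followed at 1, 3, 6 and 12 h.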

Sm5HTR = Sm5HTR (Schistosoma mansoni, UniProt G4V5G4); assay: cAMP luminescence (GloSensor) assay, HEK293 cells expressing Sm5HTR; type: cell-based, S. mansoni; settings: compound incubation followed by 50 μM 5-HT
Sequence of Sm5HTR (G4V5G4 entry or part of it): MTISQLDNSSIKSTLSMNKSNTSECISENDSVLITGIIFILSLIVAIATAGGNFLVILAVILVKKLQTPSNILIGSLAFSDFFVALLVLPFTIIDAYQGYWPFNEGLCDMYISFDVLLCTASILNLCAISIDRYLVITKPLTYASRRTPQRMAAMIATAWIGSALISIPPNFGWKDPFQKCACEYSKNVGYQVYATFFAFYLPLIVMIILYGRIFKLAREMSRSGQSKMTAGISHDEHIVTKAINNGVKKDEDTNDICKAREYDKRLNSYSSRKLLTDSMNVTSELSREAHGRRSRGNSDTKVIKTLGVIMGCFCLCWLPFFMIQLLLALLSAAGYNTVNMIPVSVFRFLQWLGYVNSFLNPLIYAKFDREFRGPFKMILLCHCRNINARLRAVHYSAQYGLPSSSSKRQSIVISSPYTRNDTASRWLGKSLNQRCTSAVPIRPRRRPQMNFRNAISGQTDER

[5] = three-day-old schistosomulae, 10 μM, 24 h
[6] = schistosomulae, 1h exposure, read at D1, 10 µM
[7] = schistosomulae, 1h exposure, read at D5, 10 µM
[8] = schistosomulae, 3h exposure, read at D1, 10 µM
[9] = schistosomulae, 3h exposure, read at D5, 10 µM
[10] = schistosomulae, 6h exposure, read at D1, 10 µM
[11] = schistosomulae, 6h exposure, read at D5, 10 µM
[12] = schistosomulae, secondary screen, 24h exposure, read at D1, 1 µM
[13] = schistosomulae, secondary screen, 24h exposure, read at D1, 10 µM
[14] = schistosomulae, secondary screen, 24h exposure, read at D5, 10 µM
[15] = NPS-2143 and analogs, 24h, D1, 10 µM
[16] = NPS-2143 and analogs, 24h, D5, 10 µM
[17] = 120 h, NPS-2143 and analogs, 24h, D5, 1 µM
[18] = NPS-2143 and analogs, 24h, D1, 1 µM

Structure (SMILES): Cc1ccc(Sc2ccccc2N2CCNCC2)c(C)c1 [Vortioxetine]
- effect on viability of schistosomulae in words ([1]; 24 h incubation, five days): schistosomulicidal
- Phenotype [1, 5]: big, granulated
- Fractional motility (S. mansoni adult worms; D1, Female adult worms): 2.64
- Fractional motility (S. mansoni adult worms; D1, Male adult worms): 2.15
- Fractional motility (S. mansoni adult worms; D5, Female adult worms): 0.24
- Fractional motility (S. mansoni adult worms; D5, Male adult worms): 1.01
- viability at 10 µM [2]: 10%
- inhibition of EPN-evoked luminescence ([3]; 50 μM EPN): ≥ 50%
- inhibition at 10 µM (SmD2; HEK293, SmD2 cells, 10 μM compound, 50 μM EPN, read-out: inhibition of EPN-evoked luminescence): ≥ 50%
- IC50 (SmD2): 3680 nM
- activity at 1 µM ([4]; 120 h, Selleckchem customized library secondary screen, 24h, D5, 1 µM): 60%
- Fractional motility ([4]; Selleckchem customized library secondary screen, 24h, D1, 10 µM): 55.99
- Fractional motility ([4]; Selleckchem customized library secondary screen, 24h, D5, 10 µM): -0.42
- motility phenotype in words ([4]; schistosomulae, after 24 h exposure): high levels of hypermotility

Structure (SMILES): CNCCc1ccc(O)c(O)c1 [EPN, epinine]
- EC50 (SmD2; luminescent cAMP signal, agonist): 2520 ± 1120 nM

Structure (SMILES): O=[N+]([O-])c1ccc2c(c1)S(=O)(=O)C=C2 [Stattic]
- Viability (%) ([1]; three-day-old schistosomulae, 10 μM, 24 h, calculated 5 days post compound exposure): 0%
- Phenotype [1, 5]: big, dark, granulated
- inhibition of Sm5HTR 5-HT-evoked signals (Sm5HTR): ≥ 50%
- Fractional motility (S. mansoni adult worms; D1, Female adult worms): 0.39
- Fractional motility (S. mansoni adult worms; D1, Male adult worms): -0.03
- Fractional motility (S. mansoni adult worms; D5, Female adult worms): -0.90
- Fractional motility (S. mansoni adult worms; D5, Male adult worms): 0.23
- effect on luminescence evoked by forskolin [3]: significant decrease in luminescence
- Fractional motility [4, 6]: -0.71
- Fractional motility [4, 7]: -0.69
- Fractional motility [4, 8]: -0.97
- Fractional motility [4, 9]: -1.00
- Fractional motility [4, 10]: -0.91
- Fractional motility [4, 11]: -0.99
- Fractional motility [4, 12]: 0.84
- Fractional motility [4, 13]: 1.23
- Fractional motility ([4]; schistosomulae, secondary screen, 24h exposure, read at D5, 1 µM): -0.47
- Fractional motility [4, 14]: -0.96

Structure (SMILES): O=[N+]([O-])C=Cc1ccc2c(c1)OCO2 [MNS, 3,4-methylenedioxy-β-nitrostyrene]
- Phenotype [1, 5]: blebbing, dark, granulated
- inhibition of Sm5HTR 5-HT-evoked signals (Sm5HTR): ≥ 50%
- Fractional motility (S. mansoni adult worms; D1, Female adult worms): -0.14
- Fractional motility (S. mansoni adult worms; D1, Male adult worms): -0.40
- Fractional motility (S. mansoni adult worms; D5, Female adult worms): -0.83
- Fractional motility (S. mansoni adult worms; D5, Male adult worms): -0.55
- viability at 10 µM [2]: 43%
- effect on luminescence evoked by forskolin [3]: significant decrease in luminescence
- activity at 1 µM ([4]; 120 h, schistosomulae, secondary screen, 24h exposure, read at D5, 1 µM): 103%
- activity at 1 µM [4, 12]: 241%
- Fractional motility [4, 6]: -0.95
- Fractional motility [4, 7]: -0.06
- Fractional motility [4, 8]: -0.96
- Fractional motility [4, 9]: -0.87
- Fractional motility [4, 10]: -0.83
- Fractional motility [4, 11]: -0.87
- Fractional motility [4, 13]: 2.46
- Fractional motility [4, 14]: -0.0952

- IC50 (SmD2): 21.7 nM
Structure (SMILES): CC(=O)Nc1ccc(CCNCC(O)COc2cccc3ccccc23)cc1 (stereo not drawn) [compound 31]
- Fractional motility [4, 15]: -0.82
- Fractional motility [4, 16]: -0.79
- activity at 1 µM [4, 17]: -34%
- activity at 1 µM [4, 18]: -69%

- IC50 (SmD2): 12.3 nM
Structure (SMILES): OC(CNCCc1ccccc1)COc1ccccc1C1CCCCC1 (stereo not drawn) [compound 35]
- Fractional motility [4, 15]: -0.99

- IC50 (SmD2): 27.2 nM
Structure (SMILES): COc1ccc(CCNCC(O)COc2ccccc2C2CC3CCC2C3)cc1OC (stereo not drawn) [compound 28]
- Fractional motility [4, 15]: -1.00
- Fractional motility [4, 16]: -1.00
- activity at 1 µM [4, 17]: -67%
- activity at 1 µM [4, 18]: -69%
